PMC4585259 (Frontiers in Pharmacology, 2015)
pKd: −log10 of the molar value. Like-named read-outs stand apart in the source and are kept apart here.

Target: T1, rNav1.2 sodium channels (Rattus norvegicus, UniProt P04775)
T1 construct: host or cells: HEK-293
Experiment: QPatch automated patch clamp, inhibition of sodium currents evoked by 5 Hz trains at three extracellular pH values
Assay type: cell-based
Details: for class of pH-dependence pattern (cluster analysis): Ward's method on 18 variables of affinity, reversibility, onset; for KD app, effect of acidic medium: pH = 6.0 vs neutral, increased KD app = decreased apparent affinity
Protocol: HEK-293 cells stably expressing rNav1.2 sodium channels were obtained from NeuroSearch (Ballerup, Denmark). The cells were grown in Dulbecco's modified Eagle medium supplemented with 10% FBS. Prior to use, the cells were trypsinized and subsequently kept in suspension in the QPatch cell storage facility in CHO-S- SFM-II medium.
Composition of the extracellular solution was: (in mM): 140 NaCl, 3 KCl, 1 CaCl2 1 MgCl2, 0.1 CdCl2, 20 TEA-Cl, 5 HEPES, adjusted to pH 7.3, Osmolality: 320 mOsm. […] Drugs were synthesized in Gedeon Richter Plc. […] The full list of drugs, with their three-letter codes, concentration, as well as their main therapeutic indication and main mechanism of action are shown in Table 1. […] The choice of concentrations used in this study may seem unusually high.
Data were sampled at a frequency of 25 kHz and filtered at 5 kHz. Junction potential was calculated to be −11 mV and was corrected for. […] Cells having membrane resistance < 500 MOhm, series resistance > 9 MOhm, or capacitance > 22 pF were excluded from analysis. The experimental protocol was also identical to the one used in our previous study: sodium channels were activated by 5 Hz trains of 5 depolarizations (−90 to −10 mV) repeated in every 20 s. In this study, however, the same control–drug-application–washout sequence was repeated four times: at neutral, acidic, alkalic, and again neutral pH. The peak amplitudes of sodium currents throughout the whole experiment are shown plotted against time in Figure 1 and Supplementary Figure 1.
Initial analysis, including subtraction of leak and capacitive artifacts, as well as peak detection were done in the QPatch software. […] All experiments were normalized to the amplitude of the current evoked by the first depolarization of the last train under control conditions. […] For all four drug applications in an experiment, apparent affinity, onset and offset time constants as well as reversibility values were calculated. […] (This method is equivalent to applying the Lineweaver-Burk plot method using a single concentration.) Reversibility values were calculated from control (c), inhibited (i), and wash-out (w) amplitudes as follows: Reversibility = (w-i)/(c-i). Reversibility values should not be regarded as experimental platform-independent properties of compounds. […] However, reversibility values are a valuable source of information regarding physicochemical differences between individual drugs, or between effects of the same drug under different extracellular pH conditions. Onset and offset time constants were determined by single exponential fitting to individual experiments. For neutral pH numerical data were given as the average of the data from the first and the last drug applications. Thin black lines on Figure 1 and Supplemental Figure 1 show the average of five fitted exponentials, (not the exponential fitted to the averaged normalized amplitudes). The numerical values of apparent affinity, onset and offset time constants and reversibility are shown in Table 2, and their relative position is illustrated in Figure 2. Affinity and time constant values were logarithmically transformed for statistics, therefore we show their geometric mean. For recovery data no transformation was done, and we show arithmetic mean values. Significance values were calculated using paired, two-tailed Student's t-test based on five pairs of apparent affinity (log transform), time constant (log transform), or reversibility values obtained from five individual experiments. Because of the large number of comparisons in this study, we accepted p < 0.01 as significant. Cluster analysis was done using Ward's minimum variance method, with Euclidean distance measure. Data were normalized by subtracting the mean (after logarithmic transformation in the case of apparent affinity and time constants), and dividing by the standard deviation.

[1] = pH 6.0, concentration (lidocaine 300 μM, memantine 30 μM)
[2] = pH 6.0, higher concentration: lidocaine 1000 μM, memantine 100 μM
[3] = pH 6.0, single concentration (lidocaine 300 μM, memantine 30 μM), geometric mean of 5, read-out: apparent affinity
[4] = pH 7.3, concentration (lidocaine 300 μM, memantine 30 μM)
[5] = pH 7.3, higher concentration: lidocaine 1000 μM, memantine 100 μM
[6] = pH 7.3, single concentration (lidocaine 300 μM, memantine 30 μM), geometric mean of 5, read-out: apparent affinity
[7] = pH 8.6, concentration (lidocaine 300 μM, memantine 30 μM)
[8] = pH 8.6, higher concentration: lidocaine 1000 μM, memantine 100 μM
[9] = pH 8.6, single concentration (lidocaine 300 μM, memantine 30 μM), geometric mean of 5, read-out: apparent affinity
[10] = pH=6.0, cc 100 mM, read-out: Apparent Affinity
[11] = pH=7.3, cc 100 mM, read-out: Apparent Affinity
[12] = pH=8.6, cc 100 mM, read-out: Apparent Affinity

T1 sequence (P04775 whole entry): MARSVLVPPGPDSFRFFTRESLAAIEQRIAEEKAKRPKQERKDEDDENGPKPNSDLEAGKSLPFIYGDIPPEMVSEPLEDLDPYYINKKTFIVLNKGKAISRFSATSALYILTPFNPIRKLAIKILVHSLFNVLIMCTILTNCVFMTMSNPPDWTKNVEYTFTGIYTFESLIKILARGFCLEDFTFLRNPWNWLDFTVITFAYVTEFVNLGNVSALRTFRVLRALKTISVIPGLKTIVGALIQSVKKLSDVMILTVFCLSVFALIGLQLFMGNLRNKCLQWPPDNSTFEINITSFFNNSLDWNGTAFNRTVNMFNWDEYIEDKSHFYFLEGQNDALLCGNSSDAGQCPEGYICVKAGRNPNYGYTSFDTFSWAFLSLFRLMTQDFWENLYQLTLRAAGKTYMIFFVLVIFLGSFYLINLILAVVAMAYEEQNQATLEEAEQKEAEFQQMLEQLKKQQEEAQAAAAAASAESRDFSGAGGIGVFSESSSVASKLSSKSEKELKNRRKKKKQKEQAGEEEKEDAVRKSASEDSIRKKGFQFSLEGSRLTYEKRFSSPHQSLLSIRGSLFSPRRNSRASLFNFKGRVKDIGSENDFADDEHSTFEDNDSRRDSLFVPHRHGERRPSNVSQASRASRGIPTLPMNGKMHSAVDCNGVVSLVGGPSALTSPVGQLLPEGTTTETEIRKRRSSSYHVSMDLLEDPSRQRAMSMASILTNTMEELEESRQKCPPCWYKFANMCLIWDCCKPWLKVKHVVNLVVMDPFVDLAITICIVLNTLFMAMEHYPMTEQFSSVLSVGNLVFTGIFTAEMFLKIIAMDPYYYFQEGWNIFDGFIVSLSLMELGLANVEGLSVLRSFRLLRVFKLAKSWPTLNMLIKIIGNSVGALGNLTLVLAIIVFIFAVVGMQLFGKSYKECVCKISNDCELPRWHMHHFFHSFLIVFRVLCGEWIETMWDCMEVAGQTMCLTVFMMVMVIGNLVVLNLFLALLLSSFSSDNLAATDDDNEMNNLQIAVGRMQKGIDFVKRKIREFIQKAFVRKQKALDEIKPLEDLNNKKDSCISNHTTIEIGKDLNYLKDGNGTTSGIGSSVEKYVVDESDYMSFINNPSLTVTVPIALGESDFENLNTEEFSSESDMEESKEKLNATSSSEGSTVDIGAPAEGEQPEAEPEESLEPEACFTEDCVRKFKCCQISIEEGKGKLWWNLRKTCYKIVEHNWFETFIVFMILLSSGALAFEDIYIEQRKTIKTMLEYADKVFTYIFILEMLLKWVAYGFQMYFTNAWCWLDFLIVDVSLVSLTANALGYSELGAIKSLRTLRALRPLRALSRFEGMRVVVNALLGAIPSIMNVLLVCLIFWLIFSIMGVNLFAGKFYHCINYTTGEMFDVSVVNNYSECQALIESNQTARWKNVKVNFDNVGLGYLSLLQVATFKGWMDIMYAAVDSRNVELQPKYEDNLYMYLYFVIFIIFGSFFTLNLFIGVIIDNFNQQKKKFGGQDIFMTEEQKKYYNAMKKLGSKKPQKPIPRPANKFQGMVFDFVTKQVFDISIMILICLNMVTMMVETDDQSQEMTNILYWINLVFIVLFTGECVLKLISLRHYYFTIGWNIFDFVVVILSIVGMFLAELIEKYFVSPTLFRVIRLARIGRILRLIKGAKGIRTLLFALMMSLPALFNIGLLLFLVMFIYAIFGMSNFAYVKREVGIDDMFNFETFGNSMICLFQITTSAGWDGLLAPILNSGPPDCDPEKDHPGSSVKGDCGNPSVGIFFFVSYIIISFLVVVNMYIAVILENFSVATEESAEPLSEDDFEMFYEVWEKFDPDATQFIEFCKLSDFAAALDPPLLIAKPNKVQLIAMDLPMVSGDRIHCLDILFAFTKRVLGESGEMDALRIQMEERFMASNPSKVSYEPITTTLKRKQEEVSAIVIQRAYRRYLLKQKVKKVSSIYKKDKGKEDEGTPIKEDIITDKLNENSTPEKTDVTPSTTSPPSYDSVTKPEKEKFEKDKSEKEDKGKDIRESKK

SMILES: CC12CC3CC(C)(C1)CC(N)(C3)C2 [memantine]
- class of pH-dependence pattern (cluster analysis): Class F
- Ratio Reversibility (pH 6.0/7.3, cc 30 mM): 0.946
- Ratio Tau Offset (pH 6.0/7.3, cc 30 mM): 1.093
- Ratio Tau Onset (pH 6.0/7.3, cc 30 mM): 0.877
- log Ratio App Aff (pH 6.0/7.3, cc 30 mM): 0.255
- Ratio Reversibility (pH 6.0/7.3, cc 100 mM): 0.974
- Ratio Tau Offset (pH 6.0/7.3, cc 100 mM): 0.656
- Ratio Tau Onset (pH 6.0/7.3, cc 100 mM): 1.032
- log Ratio App Aff (pH 6.0/7.3, cc 100 mM): 0.109
- Ratio Reversibility (pH 6.0/8.6, cc 30 mM): 1.464
- Ratio Tau Offset (pH 6.0/8.6, cc 30 mM): 1.000
- Ratio Tau Onset (pH 6.0/8.6, cc 30 mM): 0.688
- log Ratio App Aff (pH 6.0/8.6, cc 30 mM): 0.915
- Ratio Reversibility (pH 6.0/8.6, cc 100 mM): 1.593
- Ratio Tau Offset (pH 6.0/8.6, cc 100 mM): 0.550
- Ratio Tau Onset (pH 6.0/8.6, cc 100 mM): 0.842
- log Ratio App Aff (pH 6.0/8.6, cc 100 mM): 0.840
- τoffset [1]: 23.60 s
- τonset [1]: 12.80 s
- τoffset [2]: 12.20 s
- τonset [2]: 12.80 s
- pKd (pH 6.0, higher concentration: lidocaine 1000 μM, memantine 100 μM, read-out: apparent affinity): 3.52
- pKd [3]: 3.40
- Ratio Reversibility (pH 7.3/8.6, cc 30 mM): 1.547
- Ratio Tau Offset (pH 7.3/8.6, cc 30 mM): 0.915
- Ratio Tau Onset (pH 7.3/8.6, cc 30 mM): 0.785
- log Ratio App Aff (pH 7.3/8.6, cc 30 mM): 0.661
- Ratio Reversibility (pH 7.3/8.6, cc 100 mM): 1.636
- Ratio Tau Offset (pH 7.3/8.6, cc 100 mM): 0.838
- Ratio Tau Onset (pH 7.3/8.6, cc 100 mM): 0.816
- log Ratio App Aff (pH 7.3/8.6, cc 100 mM): 0.731
- τoffset [4]: 21.60 s
- τonset [4]: 14.60 s
- τoffset [5]: 18.60 s
- τonset [5]: 12.40 s
- pKd (pH 7.3, higher concentration: lidocaine 1000 μM, memantine 100 μM, read-out: apparent affinity): 3.63
- pKd [6]: 3.66
- τoffset [7]: 23.60 s
- τonset [7]: 18.60 s
- τoffset [8]: 22.20 s
- τonset [8]: 15.20 s
- pKd (pH 8.6, higher concentration: lidocaine 1000 μM, memantine 100 μM, read-out: apparent affinity): 4.36
- pKd [9]: 4.32
- KD app, effect of acidic medium: MEM,MEX,TOL↑
- Reversibility (pH=6.0, cc 30 mM): 0.82
- pKd (pH=6.0, cc 30 mM, read-out: Apparent Affinity): 3.40
- Reversibility (pH=6.0, cc 100 mM): 0.89
- pKd [10]: 3.52
- Reversibility (pH=7.3, cc 30 mM): 0.86
- pKd (pH=7.3, cc 30 mM, read-out: Apparent Affinity): 3.66
- Reversibility (pH=7.3, cc 100 mM): 0.92
- pKd [11]: 3.63
- Reversibility (pH=8.6, cc 30 mM): 0.56
- pKd (pH=8.6, cc 30 mM, read-out: Apparent Affinity): 4.32
- Reversibility (pH=8.6, cc 100 mM): 0.56
- pKd [12]: 4.36

SMILES: Cc1cccc(C)c1OCC(C)N (stereo not shown) [mexiletine]
- class of pH-dependence pattern (cluster analysis): Class F
- effect of alkalic pH on onset/offset kinetics (in words): acceleration of onset
- Ratio Reversibility (pH 6.0/7.3, cc 300 mM): 0.987
- Ratio Tau Offset (pH 6.0/7.3, cc 300 mM): 1.071
- Ratio Tau Onset (pH 6.0/7.3, cc 300 mM): 1.162
- log Ratio App Aff (pH 6.0/7.3, cc 300 mM): 0.268
- Ratio Reversibility (pH 6.0/8.6, cc 300 mM): 1.300
- Ratio Tau Offset (pH 6.0/8.6, cc 300 mM): 0.938
- Ratio Tau Onset (pH 6.0/8.6, cc 300 mM): 1.411
- log Ratio App Aff (pH 6.0/8.6, cc 300 mM): 0.786
- τoffset [1]: 21.00 s
- τonset [1]: 15.80 s
- pKd [3]: 3.46
- Ratio Reversibility (pH 7.3/8.6, cc 300 mM): 1.317
- Ratio Tau Offset (pH 7.3/8.6, cc 300 mM): 0.875
- Ratio Tau Onset (pH 7.3/8.6, cc 300 mM): 1.214
- log Ratio App Aff (pH 7.3/8.6, cc 300 mM): 0.518
- τoffset [4]: 19.60 s
- τonset [4]: 13.60 s
- pKd [6]: 3.72
- τoffset [7]: 22.40 s
- τonset [7]: 11.20 s
- pKd [9]: 4.24
- KD app, effect of acidic medium: MEM,MEX,TOL↑
- Reversibility (pH=6.0, cc 300 mM): 0.78
- pKd (pH=6.0, cc 300 mM, read-out: Apparent Affinity): 3.46
- Reversibility (pH=7.3, cc 300 mM): 0.79
- pKd (pH=7.3, cc 300 mM, read-out: Apparent Affinity): 3.72
- Reversibility (pH=8.6, cc 300 mM): 0.60
- pKd (pH=8.6, cc 300 mM, read-out: Apparent Affinity): 4.24

SMILES: CN1CCN2c3ncccc3Cc3ccccc3C2C1 (stereo not shown) [mirtazapine]
- class of pH-dependence pattern (cluster analysis): Class D
- Ratio Reversibility (pH 6.0/7.3, cc 100 mM): 0.272
- Ratio Tau Offset (pH 6.0/7.3, cc 100 mM): 1.108
- Ratio Tau Onset (pH 6.0/7.3, cc 100 mM): 1.386
- log Ratio App Aff (pH 6.0/7.3, cc 100 mM): 0.353
- Ratio Reversibility (pH 6.0/8.6, cc 100 mM): 0.495
- Ratio Tau Offset (pH 6.0/8.6, cc 100 mM): 0.960
- Ratio Tau Onset (pH 6.0/8.6, cc 100 mM): 1.173
- log Ratio App Aff (pH 6.0/8.6, cc 100 mM): 0.925
- τoffset [1]: 14.40 s
- τonset [1]: 12.20 s
- pKd [3]: 3.50
- Ratio Reversibility (pH 7.3/8.6, cc 100 mM): 1.821
- Ratio Tau Offset (pH 7.3/8.6, cc 100 mM): 0.867
- Ratio Tau Onset (pH 7.3/8.6, cc 100 mM): 0.846
- log Ratio App Aff (pH 7.3/8.6, cc 100 mM): 0.572
- τoffset [4]: 13.00 s
- τonset [4]: 8.80 s
- pKd [6]: 3.85
- τoffset [7]: 15.00 s
- τonset [7]: 10.40 s
- pKd [9]: 4.42
- effect of acidic pH on recovery (pH = 6.0 vs 7.3, in words): decreased recovery
- Reversibility (pH=6.0, cc 100 mM): 0.26
- pKd [10]: 3.50
- Reversibility (pH=7.3, cc 100 mM): 0.95
- pKd [11]: 3.85
- Reversibility (pH=8.6, cc 100 mM): 0.52
- pKd [12]: 4.42
